Values quoted from earlier work in patent publication US20180042922A1 (priority 2016, published 2018).

Tested on: patients with PTSD
Conditions: RCTs

Question: Which “nightmares in patients with PTSD” value does the source give for `COc1cc2nc(N3CCN(C(=O)c4ccco4)CC3)nc(N)c2cc1OC` [prazosin] here?
Answer: decrease nightmares
